“And” between values parts separate entries of the source, which are not always exact repeats. Identical values can stand only once. Where no end group is shown, it is not given here. [ ]: non-standard residue; d: D form. Pen = CC(C)(S)[C@H](N)C(=O)O
Assays:
[1] = system: canine platelet aggregation; assay: In vitro canine platelet aggregation stimulated by ADP, arachidonic acid or collagen; assay type: cell-based, dog; conditions: 10 μm ADP, […] arachidonic acid or 9.6 micrograms/ml collagen; PRP; read-out: IC50 against canine platelet aggregation
Protocol: (§1) Platelet counts and ex vivo aggregation studies were performed one hour before and 1, 3, and 5 hours after application of anodal direct current.
Epinephrine (550 nM) was used to prime platelets before stimulation with arachidonic acid. Peptides were added in 1% dilutions to the PRP solutions.

platelet aggregation [2] = assay: Ex vivo platelet aggregation after peptide injection in canine coronary thrombosis model; set-up: species or system dog; conditions: for ex vivo aggregation reduced relative to control: 3 mg/kg
Protocol: For all ex vivo studies (see FIGS. 3a, 3b1, 3b2, 3b3, 3c1 and 3c2), control aggregation values were standardized to the percentages of light transmission observed in PRP and PPP samples (0% and 100%, respectively).
(§2) Animals were randomly assigned to two treatment groups: vehicle control (i.e., normal saline) or RGD peptides at various concentrations. Peptides were administered intra-atrially in both bolus and continuous injections. […] A continuous infusion of the same peptide was then started immediately after completion of this initial injection. Animals that received a 5 mg/kg bolus also received a 5 mg/kg/hr infusion, whereas animals that received a 10 mg/kg bolus also received a 10 mg/kg/hr infusion. The anti-thrombotic effects of the peptides were monitored until 30 minutes after the occurrence of a persistent, occlusive thrombus or five hours after the initiation of electrical stimulation (whichever resulted first). If an occlusive thrombus had not developed within four hours after the initiation of current, the peptide infusion was stopped.
as §1
Platelet aggregation was also determined ex vivo at one, three, and five hours after current application. For these studies, arachidonic acid, or collagen was again used to stimulate the platelets.
The average aggregation values determined in these studies for all of the peptide treatments are depicted in FIGS. 3a, 3b1, 3b2, 3b3, 3c1, and 3c2. […] The control responses in these studies were 70-80% of maximum. […] Here the control responses were 55-80% of maximum.

coronary thrombosis = assay: Electrically induced canine coronary thrombosis, time to full occlusion; assay type: in vivo, dog
Protocol: Male mongrel dogs weighing 14 to 20 kg were selected based on proper aggregation of their platelets in response to arachidonic acid, collagen, and adenosine disphosphate (ADP) and based on similar weights and hemodynamic properties.
Before surgery, the animals were anesthetized with sodium pentobarbital (30 mg/kg, i.v.) and then intubated and ventilated on room air with positive pressure using a respirator (Harvard Apparatus, S. Natick, Mass.) at a volume of 30 ml/kg and a frequency of 12 breaths/min. Surgery, performed under aseptic conditions, was begun with the placement of cannulae into the left carotid artery and jugular vein for monitoring arterial blood pressure (Statham P23 pressure transducer, Gould, Inc., Cardiovascular Products, Oxnard, Calif.) and administering intravenous fluids.
The heart was exposed via a left thoracotomy through the 5th intercostal space. A 2-cm segment of the left circumflex coronary artery (LCCA) was isolated from surrounding tissue by blunt dissection. […] The intra-coronary electrode was constructed by attaching a 25-gauge hypodermic needle tip to a 30-gauge Teflon-insulated silver-coated copper wire. The mechanical occluder was constructed of stainless steel in a C shape with a Teflon screw (2 mm diameter) on top. It was adjusted to control vessel circumference and decrease the reactive hyperemic flow due to a 10-sec (full) occlusion by 50-70% without affecting basal coronary blood flow (FIG. 1c). A monopolar epicardial electrode was sutured to the surface of the ventricle in the region of LCCA distribution to monitor ischemic changes in the electrocardiogram (ECG). The left atrium was cannulated with polythylene tubing for administration of the peptide. Continuous recordings of blood pressure, limb lead II ECG, epicardial electrogram, and mean and phasic LCCA blood flow were obtained on a Model 7 polygraph (Grass Instrument Co., Quincy, Mass.).
One hour after the completion of surgery, a 100 micro-amp continuous anodal direct current delivered from a 9 volt nickel-cadmium battery was applied to the intimal surface of the LCCA. The anode of the battery was in series with a 250,000 ohm potentiometer and the intraluminal coronary artery electrode. The electric circuit was completed by placing the cathode in a subcutaneous site. Electrical stimulation was applied for three hours. At the conclusion of each experiment, the heart was fibrillated electrically and quickly removed, and the LCCA was dissected free as far as possible to verify the position of the implanted anodal electrode.
as §2
Coronary thrombosis was quantified as the time to full occlusion. The effects of the various peptide treatments on coronary thrombosis is illustrated in FIG. 4.

[3] = system: Gore-tex vascular graft thrombosis; assay: Platelet and fibrinogen uptake by Gore-tex grafts in baboon ex vivo shunt
Protocol: Adult male baboons (weighing 16 to 25 kg) were used in these studies. These were sedated with ketamine hydrochloride (200 to 250 mg intramuscular injection) and maintained under anesthesia with sodium pentobarbital (50 to 75 mg administered intravenously as necessary).
Twenty-four hours before the ex vivo shunt was established, platelets were isolated from 500 ml of blood from the test animal and labelled with ca. 500 microcuries of indium-111 oxine (Medi+Physics, Emeryville, Calif.), which irreversibly and specifically binds to platelets with an efficiency of 50%. Immediately after labelling, these platelets were then injected back into the animal and allowed to circulate for 24 hours. Immediately before the start of the study, fibrinogen that had been isolated from the animal and labelled with iodine-131 (DuPont Nuclear, Boston, Mass.) was also injected back into the animal. Also at this time, baseline determinations of the clotting and template bleeding times were made, and blood samples were drawn for hematology studies.
To establish the ex vivo shunt, the femoral artery and vein were percutaneously cannulated with introducer catheters (KMA Inc., Mansfield, Mass.). The catheters were then connected to medical-grade, heparin-coatedsilastic tubing (2.59 mm internal diameter, (Extracorporeal Medical Specialties, Inc., King of Prussia, Pa.). […] Finally, a 5 cm-long test segment of a 4 mm (internal diameter) vascular graft was inserted at the apex of the circuit. The graft used in these studies was Gore-tex (expanded polytetrafluoroethylene, (W. L. Gore and Associates, Inc., Flagstaff, Ariz.). An electromagnetic flow probe was then inserted into the tubing circuit to measure blood flow, which was maintained at 100 ml/min. by varying the resistance imported by a partially occluding screw clamp that was distal to the probe. Finally, a 5 cm-long test segment of a 4 mm (internal diameter) vascular graft was inserted at the apex of the circuit. The graft used in these studies was Gore-tex (expanded polytetrafluoroethylene, W. L. Gore and Associates, Inc., Flagstaff, Ariz.).
Platelet deposition onto the grafts was monitored by dynamic scanning with a gamma camera (Sigma 400, Ohio Nuclear, Inc., Sohon, Ohio), which detects the gamma radiation emitted by the indium^111 -labelled platelets. Once the circuit was in place, the animal was placed under this camera, and blood flow was initiated. Scans were then taken at the rate of one frame per two minutes for two hours. The data from these scans were collected on a dedicated Digital MDA computer (Maynard, Mass.). […]

platelet aggregation [4] = assay: Ex vivo ADP-stimulated platelet aggregation in baboon PRP; conditions: animal 2; ADP 10 μm; 0, 1 and 2 hours
Protocol: At one- and two-hour time points, template bleeding times were measured, and blood samples were drawn to assess the hematology aggregation studies. Platelet aggregation studies were performed as described in Example V using ADP as the stimulus.
In addition, platelet aggregation studies were conducted on PRP derived from the second animal. Whole blood was drawn at three time points (0, 1 and 2 hours) of both control and experimental shunts.

[5] = system: platelets stimulated with ADP; assay: ADP-stimulated platelet aggregation (Born aggregometry, PRP); assay type: cell-based, human; conditions: ADP 10 μm, platelet-rich plasma, 37° C.
Protocol: Platelet aggregation was assessed using the method of Born, Nature 194: 927-929 (1962), incorporated herein by reference. Briefly, the change in light transmission was measured through a stirred suspension of platelets in an aggregometer (Model 400 VS, Chrono-Log, Havertown, Pa., USA). Studies employing ADP were performed with platelet-rich plasma (PRP), which was obtained by low-speed centrifugation (200× g for 10 min.) of whole blood freshly drawn into trisodium citrate (at a final concentration of 11 mM). […] For all studies, the reference standard was platelet-poor plasma, which was obtained by centrifuging PRP at 1000× g for 5 min.

[6] = system: platelets stimulated with thrombin; assay: Thrombin-stimulated platelet aggregation (Born aggregometry); assay type: cell-based, human; conditions: thrombin 2 U/ml, gel-filtered platelets, 37° C.
Protocol: Platelet aggregation was assessed using the method of Born, Nature 194: 927-929 (1962), incorporated herein by reference. Briefly, the change in light transmission was measured through a stirred suspension of platelets in an aggregometer (Model 400 VS, Chrono-Log, Havertown, Pa., USA). […] In studies using thrombin, the PRP was gel-filtered on Sepharose 2B in divalent ion-free Tyrode's solution containing 2% BSA. For all studies, the reference standard was platelet-poor plasma, which was obtained by centrifuging PRP at 1000× g for 5 min.
All aggregation studies were performed at 37° C. with a constantly stirred suspension of 3×10^8 platelets/ml. (Platelet count was determined with the aid of a hemacytometer.) Peptides and stimulants were added to these suspensions in 1% dilutions. The PRP and gel-filtered platelets were used within three hours from the time of blood collection.
Peptide anti-aggregation potencies were determined from dose-responsive curves for the inhibition of the maximum aggregation responses stimulated by physiologic doses of ADP (10 μm) and thrombin (2 U/ml).

[7] = 10 mg/kg, all three time points
[8] = 10 mg/kg bolus + 10 mg/kg/hr infusion, intra-atrial
[9] = animal 1, two bolus IV injections of 10 mg/kg
[10] = animal 2, 10 mg/kg IV bolus + 10 mg/kg/hr infusion for two hours

Row | Substance | IC50 [5] [µM] | IC50 [6] [µM] | also measured
1 | GPenGHRGDLRCA |  |  | IC50 [1]: 15 to 30 µM; ex vivo inhibition of AA-stimulated aggregation relative to control (platelet aggregation [2]; [7]): 43-70%; ex vivo inhibition of collagen-stimulated aggregation relative to control (platelet aggregation [2]; [7]): 12-50%; ex vivo inhibition of ADP-stimulated aggregation (platelet aggregation [2]; 10 mg/kg, one, three, five hours): substantially inhibited; time to full occlusion (coronary thrombosis; [8]): did not significantly influence; reduction in I131-fibrinogen uptake by graft [3, 9]: 79%; reduction in In111-platelet uptake by graft [3, 9]: 90%; reduction in labelled fibrinogen uptake by graft [3, 10]: 78%; reduction in labelled platelet uptake by graft [3, 10]: 84%; ex vivo platelet response to ADP (platelet aggregation [4]): completely unresponsive
2 | LPenGHRGDLRCA | 10.5 |  | 
3 | R[Pen]GRGDLRCA (cysteine pairing not given here) | 16 | 13 | 
4 | G[Pen]YRGDSPCA (cysteine pairing not given here) | 47 |  | 
5 | VRGDSPDG | 92 |  | 
6 | RPenGRGDTPCA | 7 | 3.1 | 
7 | R[Pen]GHRGDTRCR (cysteine pairing not given here) | 8.8 |  | 
8 | PmpGRGDTPCA | 85 |  | 
9 | (t-but-am-Pmp)GHRGDLRPenA | 89 |  | 
10 | RPenGRGDTPCK | 7.6 |  | 
11 | G[Pen]GRGDSFCA (cysteine pairing not given here) | 115 |  | 
12 | R(orn)GHRGDLRDR | > 200 |  | 
13 | GPenGRGDTPCA | 22.3 | 28 | 
14 | GPenLRGDSRCA | 41 | 49 | 
15 | R2 PenGRGDTPCA | 8.2 | 2.7 | 
16 | GPenLRGDSPCA | 415 | 308 | 
17 | RPenGHRGDWRCR | 1.3 | 1.2 | IC50 [1]: 1.5 to 5 µM; ex vivo inhibition of platelet activation by collagen (platelet aggregation [2]; 5 mg/kg): near-maximal inhibition; ex vivo platelet response to ADP and AA (platelet aggregation [2]; 5 mg/kg, all three time points): completely unresponsive; ex vivo anti-aggregation effect when platelet count was low (platelet aggregation [2]; 5 mg/kg, platelet count ca. one-third of normal (104,000/ml vs. 361,000/ml)): more pronounced; ex vivo platelet responsiveness (platelet aggregation [2]; 10 mg/kg, five-hour point): slightly improved; ex vivo platelet aggregation by all three stimuli (platelet aggregation [2]; 10 mg/kg, one- and three-hour time points): prevented platelet aggregation; thrombus formation in animals with circulating platelet levels one-third of normal (coronary thrombosis; 5 mg/kg): able to prevent thrombus formation; time to full occlusion (coronary thrombosis; 5 mg/kg bolus + 5 mg/kg/hr infusion): significantly prolonged the time to occlusion; time to full occlusion (coronary thrombosis; [8]): completely prevented occlusion
18 | R[Pen]GRGDSRCA (cysteine pairing not given here) | 12 | 12 | 
19 | (t-butylAmino-Pmp) GHRGDLRCA | 130 |  | 
20 | RPenGRGDWPCR |  | 0.53 | IC50 [1]: 1.5 to 5 µM; ex vivo aggregation reduced relative to control (platelet aggregation [2]; one hour): 20-58%; ex vivo aggregation reduced relative to control (platelet aggregation [2]; three and five hours, listed as 4R): 75-100% and 72-100%; ex vivo platelet response to all modes of stimulation (platelet aggregation [2]; 10 mg/kg, all time points): unresponsive; time to full occlusion (coronary thrombosis; 3 mg/kg): ineffective; time to full occlusion (coronary thrombosis; [8]): prevented occlusion
21 | LRGDSPDG | 150 |  | 
22 | GPenLRGDTPCA | 86 |  | 
23 | RPenGRGDTPCR | 6.3 | 2 | 
24 | GPenFRGDSFCA | > 200 |  | 
25 | GPenGHRGDTRCA | 11.3 | 17 | 
26 | FRGDSPDG | 110 |  | 
27 | GPenGRGDRPCA | 22.3 |  | 

— US5648330A, “Method and composition for treating vascular graft occlusion” (La Jolla Cancer Research Foundation, priority 1995, dated 1997)
